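96-well plates; 48 h exposure; 5 concentrations. Endpoints by linear interpolation between flanking doses. Not reached: highest tested concentration assigned. At the TGI there is no net growth.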

What all share (assay): NCI tumour cell line growth inhibition, 48 h
The subject of assay [1] is BT-549 breast.
In assay [2] the test system is 786-0 renal.
Assay [3] deals with TK-10 renal.
The subject of assay [4] is A498 renal.
Assay [5] deals with A549 NSCLC.
Assay [6] relates to UACC-62 melanoma.
Assay [7] concerns SK-MEL-28 melanoma.
The subject of assay [8] is RXF 393 renal.
The test system of assay [9] is SK-MEL-2 melanoma.
In assay [10] the test system is IGROV1 ovarian.
Assay [11] has as its system NCI-H460 lung.
Assay [12] relates to MALME-3M melanoma.
Assay [13] deals with MOLT-4 leukemia.

Regarding `COc1cc(OC)c2nc(C)c(CCCl)c(Cl)c2c1`, the TGI in [1], in assay [2], in assay [3], in [4], in [5] and in [6] was greater than 100 µM throughout. The TGI in assay [7], in assay [8], in [9], in [10], in assay [11] and in assay [12] was greater than 100 µM in each case. Moreover, the TGI in [13] is greater than 100 µM.

Consider `CO/N=C(\C(=O)OC(=NC1CCCCC1)NC1CCCCC1)c1csc(NC(c2ccccc2)(c2ccccc2)c2ccccc2)n1`, for which the TGI in assay [1], in [2], in assay [3], in [4], in assay [5] and in [7] was greater than 10 µM throughout. Besides, the TGI in assay [8], in assay [9], in [10], in assay [11], in [12] and in assay [13] was greater than 10 µM in each case.

On to `C=CCn1c(N)c(C#N)c(C#N)c1-c1ccccc1`, for which the TGI in [1], in assay [2], in assay [3], in [4], in assay [5] and in assay [6] was greater than 100 µM throughout. Also, the TGI in assay [8], in [9], in assay [10], in [12] and in assay [13] was greater than 100 µM throughout.

Regarding `CCn1c(-c2ccccc2)cs/c1=N\C(P(=O)(O)O)P(=O)(O)O`, the TGI in assay [1], in assay [2], in assay [3], in [4], in assay [5] and in [6] was greater than 100 µM throughout. Moreover, the TGI in [7], in assay [8], in [10], in [11], in assay [12] and in [13] was greater than 100 µM throughout.

As to `C=CCc1cccc2cc(C(=O)NCc3ccccc3)c(=N)oc12`, the TGI was greater than 100 µM in assay [1]; 91.4 µM in [2]; 86.8 µM in [4]; greater than 100 µM in [5]; greater than 100 µM in [6]; greater than 100 µM in assay [7]. Besides, the TGI in assay [8] is greater than 100 µM; in assay [9] it was 31.5 µM; in [10] it was greater than 100 µM; in assay [11], greater than 100 µM; in assay [12], 40.4 µM; in assay [13], greater than 100 µM.

For the compound `COc1cc(C2c3cc4c(cc3OC(N3CCCCC3)C2C)OCO4)cc(OC)c1O` (stereo not drawn), the TGI in [1] is 90.5 µM; in assay [2] it was 27.7 µM; in [3], 38.5 µM; in assay [4], 27.1 µM; in [5] it was 27.1 µM; in assay [7], 27.3 µM. Moreover, the TGI in [8] is greater than 100 µM; in assay [9] it was 25.2 µM; in [10], 36.4 µM; in assay [11], 23.3 µM; in assay [12], 16.8 µM; in [13] it was greater than 91.3 µM.

For the compound `N#C[C@H](c1ccccn1)c1nc2ccccc2nc1Cl`, the TGI in assay [1], in assay [2], in assay [4], in assay [5], in assay [6] and in assay [7] was greater than 100 µM throughout. The TGI in assay [8], in assay [9], in assay [10], in assay [11], in assay [12] and in assay [13] was greater than 100 µM throughout.

Turning to `CC1(C)C(C#N)C1C1=C(N2CCOCC2)[C@]2(C)C(OC(=O)c3ccccc3)CC[C@@H]2C1` (stereo partly drawn), the TGI in assay [1], in assay [2], in [3], in assay [4], in assay [5] and in assay [6] was greater than 100 µM each time. Moreover, the TGI in assay [7], in assay [8], in assay [10], in [11], in assay [12] and in [13] was greater than 100 µM in each case.

Consider `O=C1/C(=C/c2ccc(Br)s2)NC(=S)N1c1ccccc1`, for which the TGI in assay [1], in [2], in assay [3], in assay [4], in assay [6] and in assay [7] was greater than 100 µM each time. For the same compound, the TGI in [8], in assay [9], in assay [10], in [11], in assay [12] and in assay [13] was greater than 100 µM in each case.

For the origin of these results see PubChem BioAssay (NCI).
